# Laboratory results taken from patent US20210261621A1, “Preparation of Dilipid Polymixins and Use Thereof as Antimicrobial Adjuvants” (priority 2018, published 2021).
# “And” between values parts separate entries of the source, which are not always exact repeats. Equal values may be shown once. Read-outs that look alike come from different tables or passages of the source. Positions of bridges follow the written chain, without caps; N, C: chain ends. Non-standard residues stand in square brackets, D forms with d. Residues, ends and D or L forms follow the SMILES beside them. *: point of attachment. Acetyl(1-adamantyl) = O=C(CC12CC3CC(CC(C3)C1)C2)*; Dab = NCC[C@H](N)C(=O)O
# Legend:
# pig erythrocytes = conditions: red cells of pig, 1 h, 512
# Method: The ability of the compounds to lyse eukaryotic red blood cells was measured by the amount of hemoglobin released upon incubation with pig erythrocytes, following a published protocol [30]. Briefly, fresh pig blood (generously provided by Dr. Richard Hodges, Director of Animal Care and Veterinary Services of the University of Manitoba) drawn from a pig's antecubital vein was centrifuged at 1000 g for 5 min at 4° C., washed with phosphate-buffered saline (PBS) three times, and re-suspended in the same buffer, consecutively. Compounds at study were 2-fold serially diluted in PBS on a 96-well plate and mixed with equal volumes of erythrocyte solution. Post 1 h incubation at 37° C., the intact cells were pelleted by centrifugation at 1000 g for 5 min at 4° C. Resulting supernatant was then transferred to a new 96-well plate. The hemoglobin released was then measured via an EMax Plus microplate reader (Molecular Devices, USA) at 570 nm wavelength. Erythrocytes in PBS with or without 0.1% Triton X-100 were used as positive or negative control, respectively.
# [1] = test system: P. aeruginosa CANWARD-2011 96846; type: cell-based, Pseudomonas aeruginosa
# Outline: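 Overnight cultures were standardized to 0.5 McFarland, diluted 1:50 into Mueller-Hinton broth for a final inoculum near 5×10^5 CFU/mL, then mixed with two-fold serially diluted compound. Plates were incubated 18 h at 37° C. following CLSI guidelines.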
# P. aeruginosa PAO1 = test system: P. aeruginosa PAO1; parameters: MICDrug / MICDrug in combo / MIC of adjuvant in combo: unit not given beside the values
smiles,measurement,setting,value
"CC(C)C[C@@H]1NC(=O)[C@@H](Cc2ccccc2)NC(=O)[C@H](CCN)NC(=O)[C@@H](NC(=O)[C@H](CCN)NC(=O)[C@@H](NC(=O)[C@H](CCNC(=O)CC23CC4CC(CC(C4)C2)C3)NC(=O)CC23CC4CC(CC(C4)C2)C3)[C@@H](C)O)CCNC(=O)[C@H]([C@@H](C)O)NC(=O)[C@H](CCN)NC(=O)[C@H](CCN)NC1=O [Compound 4, Diadamantane Acetic Acid (Di-Adamantyl) Polymyxin] ({Acetyl(1-adamantyl)}-[Dab](Acetyl(1-adamantyl))T[Dab][Dab][Dab][dF]L[Dab][Dab]T; lactam 4-C)",% Hemolysis at 512 μg/mL of polymyxin,pig erythrocytes,3.2 ± 0.4%
same,MIC,[1],32 µg/mL
same,"MIC of adjuvant alone (MIC1, MIC2, MIC3, MIC4, MIC5, MICPMBN)","P. aeruginosa PAO1; adjuvant alone, one value per checkerboard, in µg/mL",16 and 8
same,Interpretation,P. aeruginosa PAO1; combination with Aztreonam,"Additive (An FIC index of ≤0.5, 0.5<x≤4, or >4 denotes for synergistic, additive or antagonistic interaction, respectively)"
same,Interpretation,P. aeruginosa PAO1; combination with Ceftazidime,"Additive (An FIC index of ≤0.5, 0.5<x≤4, or >4 denotes for synergistic, additive or antagonistic interaction, respectively)"
same,Interpretation,P. aeruginosa PAO1; combination with Chloramphenicol,"Additive (An FIC index of ≤0.5, 0.5<x≤4, or >4 denotes for synergistic, additive or antagonistic interaction, respectively)"
same,Interpretation,P. aeruginosa PAO1; combination with Ciprofloxacin,"Additive (An FIC index of ≤0.5, 0.5<x≤4, or >4 denotes for synergistic, additive or antagonistic interaction, respectively)"
same,Interpretation,P. aeruginosa PAO1; combination with Clindamycin,"Additive (An FIC index of ≤0.5, 0.5<x≤4, or >4 denotes for synergistic, additive or antagonistic interaction, respectively)"
same,Interpretation,P. aeruginosa PAO1; combination with Doripenem,"Additive (An FIC index of ≤0.5, 0.5<x≤4, or >4 denotes for synergistic, additive or antagonistic interaction, respectively)"
same,Interpretation,P. aeruginosa PAO1; combination with Doxycycline,"Additive (An FIC index of ≤0.5, 0.5<x≤4, or >4 denotes for synergistic, additive or antagonistic interaction, respectively)"
same,Interpretation,P. aeruginosa PAO1; combination with Fosfomycin,"Additive (An FIC index of ≤0.5, 0.5<x≤4, or >4 denotes for synergistic, additive or antagonistic interaction, respectively)"
same,Interpretation,P. aeruginosa PAO1; combination with Gentamicin,"Additive (An FIC index of ≤0.5, 0.5<x≤4, or >4 denotes for synergistic, additive or antagonistic interaction, respectively)"
same,Interpretation,P. aeruginosa PAO1; combination with Linezolid,"Additive (An FIC index of ≤0.5, 0.5<x≤4, or >4 denotes for synergistic, additive or antagonistic interaction, respectively)"
same,Interpretation,P. aeruginosa PAO1; combination with Meropenem,"Additive (An FIC index of ≤0.5, 0.5<x≤4, or >4 denotes for synergistic, additive or antagonistic interaction, respectively)"
same,Interpretation,P. aeruginosa PAO1; combination with Minocycline,"Additive (An FIC index of ≤0.5, 0.5<x≤4, or >4 denotes for synergistic, additive or antagonistic interaction, respectively)"
same,Interpretation,P. aeruginosa PAO1; combination with Moxifloxacin,"Additive (An FIC index of ≤0.5, 0.5<x≤4, or >4 denotes for synergistic, additive or antagonistic interaction, respectively)"
same,Interpretation,P. aeruginosa PAO1; combination with Novobiocin,"Additive (An FIC index of ≤0.5, 0.5<x≤4, or >4 denotes for synergistic, additive or antagonistic interaction, respectively)"
same,Interpretation,P. aeruginosa PAO1; combination with Piperacillin,"Additive (An FIC index of ≤0.5, 0.5<x≤4, or >4 denotes for synergistic, additive or antagonistic interaction, respectively)"
same,Interpretation,P. aeruginosa PAO1; combination with Pleuromutilin,"Additive (An FIC index of ≤0.5, 0.5<x≤4, or >4 denotes for synergistic, additive or antagonistic interaction, respectively)"
same,Interpretation,P. aeruginosa PAO1; combination with Rifampicin,"Additive (An FIC index of ≤0.5, 0.5<x≤4, or >4 denotes for synergistic, additive or antagonistic interaction, respectively)"
same,Interpretation,P. aeruginosa PAO1; combination with Streptomycin,"Additive (An FIC index of ≤0.5, 0.5<x≤4, or >4 denotes for synergistic, additive or antagonistic interaction, respectively)"
same,Interpretation,P. aeruginosa PAO1; combination with Tobramycin,"Additive (An FIC index of ≤0.5, 0.5<x≤4, or >4 denotes for synergistic, additive or antagonistic interaction, respectively)"
same,Interpretation,P. aeruginosa PAO1; combination with Trimethoprim,"Additive (An FIC index of ≤0.5, 0.5<x≤4, or >4 denotes for synergistic, additive or antagonistic interaction, respectively)"
same,Interpretation,P. aeruginosa PAO1; combination with Vancomycin,"Additive (An FIC index of ≤0.5, 0.5<x≤4, or >4 denotes for synergistic, additive or antagonistic interaction, respectively)"
same,MIC of adjuvant in combo,P. aeruginosa PAO1; in combination with Aztreonam,(8)
same,MIC of adjuvant in combo,P. aeruginosa PAO1; in combination with Ceftazidime,(8)
same,MIC of adjuvant in combo,P. aeruginosa PAO1; in combination with Chloramphenicol,(4)
same,MIC of adjuvant in combo,P. aeruginosa PAO1; in combination with Ciprofloxacin,(0.25)
same,MIC of adjuvant in combo,P. aeruginosa PAO1; in combination with Clindamycin,(4)
same,MIC of adjuvant in combo,P. aeruginosa PAO1; in combination with Doripenem,(8)
same,MIC of adjuvant in combo,P. aeruginosa PAO1; in combination with Doxycycline,(4)
same,MIC of adjuvant in combo,P. aeruginosa PAO1; in combination with Fosfomycin,(4)
same,MIC of adjuvant in combo,P. aeruginosa PAO1; in combination with Gentamicin,(0.25)
same,MIC of adjuvant in combo,P. aeruginosa PAO1; in combination with Linezolid,(8)
same,MIC of adjuvant in combo,P. aeruginosa PAO1; in combination with Meropenem,(4)
same,MIC of adjuvant in combo,P. aeruginosa PAO1; in combination with Minocycline,(4)
same,MIC of adjuvant in combo,P. aeruginosa PAO1; in combination with Moxifloxacin,(4)
same,MIC of adjuvant in combo,P. aeruginosa PAO1; in combination with Novobiocin,(4)
same,MIC of adjuvant in combo,P. aeruginosa PAO1; in combination with Piperacillin,(0.25)
same,MIC of adjuvant in combo,P. aeruginosa PAO1; in combination with Pleuromutilin,(4)
same,MIC of adjuvant in combo,P. aeruginosa PAO1; in combination with Rifampicin,(4)
same,MIC of adjuvant in combo,P. aeruginosa PAO1; in combination with Streptomycin,(0.25)
same,MIC of adjuvant in combo,P. aeruginosa PAO1; in combination with Tobramycin,(0.25)
same,MIC of adjuvant in combo,P. aeruginosa PAO1; in combination with Trimethoprim,(8)
same,MIC of adjuvant in combo,P. aeruginosa PAO1; in combination with Vancomycin,(4)
same,adjuvant activity (potentiation of the panel of 21 antibiotics),P. aeruginosa PAO1; result in words,did not enhance the activity of any antibiotics
